In patent publication US20240158446A1, “CYCLIC COMPOUND HAVING SELECTIVE INHIBITORY ACTION ON KRAS OVER HRAS AND NRAS” (CHUGAI SEIYAKU KABUSHIKI KAISHA, priority 2021, published 2024):
Where two headings read alike, the source gives them in different places.

Columns and labels:
[1] = target: GDP-bound NRAS wild-type protein (Homo sapiens, UniProt P01111); assay: Binding to NRAS by surface plasmon resonance (SPR), Single Cycle Kinetics
[2] = target: GDP-bound HRAS wild-type protein (Homo sapiens, UniProt P01112); assay: Binding to HRAS by surface plasmon resonance (SPR), Single Cycle Kinetics
[3] = target: GDP-bound KRAS wild-type protein (Homo sapiens, UniProt P01116); assay: Binding to KRAS by surface plasmon resonance (SPR), Single Cycle Kinetics; conditions: GDP-bound KRAS wild-type protein, read-out: KRAS KD
[4] = SPR, GDP-bound NRAS wild-type protein vs GDP-bound KRAS wild-type protein
[5] = SPR, GDP-bound HRAS wild-type protein vs GDP-bound KRAS wild-type protein
[6] = SPR Single Cycle Kinetics, 1:1 binding model

Sequence of GDP-bound NRAS wild-type protein (P01111 whole entry): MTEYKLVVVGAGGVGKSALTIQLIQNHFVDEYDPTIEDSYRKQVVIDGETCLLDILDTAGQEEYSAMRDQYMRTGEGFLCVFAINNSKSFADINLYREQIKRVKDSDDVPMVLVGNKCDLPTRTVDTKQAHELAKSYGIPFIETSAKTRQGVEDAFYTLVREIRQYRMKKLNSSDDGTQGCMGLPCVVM
Sequence of GDP-bound KRAS wild-type protein (P01116 whole entry): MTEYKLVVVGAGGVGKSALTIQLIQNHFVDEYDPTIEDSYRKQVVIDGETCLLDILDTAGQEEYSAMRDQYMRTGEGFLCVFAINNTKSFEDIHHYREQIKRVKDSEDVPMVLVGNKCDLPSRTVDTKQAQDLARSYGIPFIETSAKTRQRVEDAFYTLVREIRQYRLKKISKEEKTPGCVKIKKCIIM
Sequence of GDP-bound HRAS wild-type protein (P01112 whole entry): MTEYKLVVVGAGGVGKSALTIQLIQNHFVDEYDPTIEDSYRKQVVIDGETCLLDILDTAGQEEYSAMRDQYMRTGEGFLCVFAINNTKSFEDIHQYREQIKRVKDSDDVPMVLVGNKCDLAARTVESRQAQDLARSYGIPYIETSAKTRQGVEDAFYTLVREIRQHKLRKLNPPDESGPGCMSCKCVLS

Kd [3, 6] [nM]	Kd ([3]; SPR, Single Cycle Kinetics) [nM]	Structure (SMILES)	NRAS/KRAS (ratio of KD value with respect to NRAS to KD value with respect to KRAS) [1, 4]	HRAS/KRAS (ratio of KD value with respect to HRAS to KD value with respect to KRAS) [2, 5]	NRAS/KRAS (ratio of KD value with respect to GDP-bound NRAS wild-type protein to KD value with respect to KRAS) ([1]; SPR KD ratio NRAS/KRAS, class symbols)	HRAS/KRAS (ratio of KD value with respect to GDP-bound HRAS wild-type protein to KD value with respect to KRAS) ([2]; SPR KD ratio HRAS/KRAS, class symbols)	NRAS/KRAS (ratio of KD value for NRAS to KD value for KRAS) [1, 4]	HRAS/KRAS (ratio of KD value for HRAS to KD value for KRAS) [2, 5]
–	0.072	CCO[C@@H]1C[C@H]2C(=O)NC3(CCC3)C(=O)N(C)[C@@H](C3CCCC3)C(=O)N(C)[C@H](C(=O)N(C)C)CC(=O)N(C)[C@@H](Cc3cccs3)C(=O)N[C@@H]([C@@H](C)CC)C(=O)N(C)CC(=O)N(C)[C@H]3C/C=C\CCN(C3=O)[C@@H](Cc3ccc(C(F)(F)F)cc3)C(=O)N(C)CC(=O)N[C@@H](CCc3cc(F)c(C(F)(F)F)c(F)c3)C(=O)N2C1 [PP1123, (2S,8S,12R,14S,20S,23S,27S,30S,36S,38Z)-20-cyclopentyl-8-[2-[3,5-difluoro-4-(trifluoromethyl)phenyl]ethyl]-12-ethoxy-N,N,4,19,22,26,32,35-octamethyl-30-[(1S)-1-methylpropyl]-3,6,9,15,18,21,25,28,31,34,42-undecaoxo-27-(2-thienylmethyl)-2-[[4-(trifluoromethyl)phenyl]methyl]spiro[1,4,7,10,16,19,22,26,29,32,35-undecazatricyclo[34.5.1.0^10,14]dotetracont-38-ene-17,1′-cyclobutane]-23-carboxamide]	–	–	–	–	A (a compound having 10 or more and less than 20 is denoted as A)	B (a compound having 3 or more and less than 10 is denoted as B)
–	0.095	CCO[C@@H]1C[C@H]2C(=O)NC3(CCC3)C(=O)N(C)[C@@H]([C@@H](C)CC)C(=O)N(C)[C@H](C(=O)N(C)C)CC(=O)N(C)[C@@H](CC)C(=O)N[C@@H]([C@@H](C)CC)C(=O)N(C)CC(=O)N(C)[C@H]3C/C=C\CCN(C3=O)[C@@H](Cc3ccc(C(F)(F)F)cc3)C(=O)N(C)CC(=O)N[C@@H](CCc3cc(F)c(C(F)(F)F)c(F)c3)C(=O)N2C1 [PP1087, (2S,8S,12R,14S,20S,23S,27S,30S,36S,38Z)-8-[2-[3,5-difluoro-4-(trifluoromethyl)phenyl]ethyl]-12-ethoxy-27-ethyl-N,N,4,19,22,26,32,35-octamethyl-20,30-bis[(1S)-1-methylpropyl]-3,6,9,15,18,21,25,28,31,34,42-undecaoxo-2-[[4-(trifluoromethyl)phenyl]methyl]spiro[1,4,7,10,16,19,22,26,29,32,35-undecazatricyclo[34.5.1.0^10,14]dotetracont-38-ene-17,1′-cyclobutane]-23-carboxamide]	–	–	–	–	A (a compound having 10 or more and less than 20 is denoted as A)	A (a compound having 10 or more and less than 20 is denoted as A)

The remaining lines, values behind:

Structure (SMILES)	Kd [3, 6] [nM]	Kd ([3]; SPR, Single Cycle Kinetics) [nM]	NRAS/KRAS (ratio of KD value with respect to NRAS to KD value with respect to KRAS) [1, 4]	HRAS/KRAS (ratio of KD value with respect to HRAS to KD value with respect to KRAS) [2, 5]	NRAS/KRAS (ratio of KD value with respect to GDP-bound NRAS wild-type protein to KD value with respect to KRAS) ([1]; SPR KD ratio NRAS/KRAS, class symbols)	HRAS/KRAS (ratio of KD value with respect to GDP-bound HRAS wild-type protein to KD value with respect to KRAS) ([2]; SPR KD ratio HRAS/KRAS, class symbols)	NRAS/KRAS (ratio of KD value for NRAS to KD value for KRAS) [1, 4]	HRAS/KRAS (ratio of KD value for HRAS to KD value for KRAS) [2, 5]
CCO[C@@H]1C[C@H]2C(=O)NC3(CCC3)C(=O)N(C)[C@@H](C3CCCC3)C(=O)N(CCC3CCC3)[C@H](C(=O)N3CCOCC3)CC(=O)N(C)[C@@H](CC(C)C)C(=O)N[C@@H]([C@@H](C)CC)C(=O)N(C)CC(=O)N(C)[C@H]3CCCCN(C3=O)[C@@H](Cc3ccc(C(F)(F)F)cc3)C(=O)N(C)CC(=O)N[C@@H](CCc3cc(F)c(C(F)(F)F)c(F)c3)C(=O)N2C1 [PP0650]	0.62	–	C (A compound having a KD ratio of 0.1 or more and less than 3 is denoted as C)	B (a compound having 3 or more and less than 10 is denoted as B)	–	–	–	–
CCC[C@H]1C(=O)N[C@@H]([C@@H](C)CC)C(=O)N(C)CC(=O)N(C)[C@H]2C/C=C\CCN(C2=O)[C@@H](Cc2ccc(C(F)(F)F)cc2)C(=O)N(C)CC(=O)N[C@@H](CCc2ccc3ccn(C)c3c2)C(=O)N2C[C@H](OCC)C[C@H]2C(=O)NC2(CC(C)(C)C2)C(=O)N(C)[C@@H](C(CC)CC)C(=O)N(C)[C@H](C(=O)N(C)C)CC(=O)N1C [PP2912]	8.7	–	–	–	AA (a compound having 20 or more is denoted as AA)	A (a compound having 10 or more and less than 20 is denoted as A)	–	–
CCO[C@@H]1C[C@H]2C(=O)NC3(CC(C)(C)C3)C(=O)N(C)[C@@H](C(CC)CC)C(=O)N(C)[C@H](C(=O)N3CCCC3)CC(=O)N(C)[C@@H](COC)C(=O)N[C@@H]([C@@H](C)CC)C(=O)N(C)CC(=O)N(C)[C@H]3C/C=C\CCN(C3=O)[C@@H](Cc3ccc(C(F)(F)F)cc3)C(=O)N(C)CC(=O)N[C@@H](CCc3cc(F)c(C(F)(F)F)c(F)c3)C(=O)N2C1 [PP2123]	–	0.25	–	–	–	–	A (a compound having 10 or more and less than 20 is denoted as A)	A (a compound having 10 or more and less than 20 is denoted as A)
CCCN(C)C(=O)[C@@H]1CC(=O)N(C)[C@@H](C2CCC2)C(=O)N[C@@H]([C@@H](C)CC)C(=O)N(C)CC(=O)N(C)[C@H]2C/C=C\CCN(C2=O)[C@@H](Cc2ccc(C(F)(F)F)cc2)C(=O)N(C)CC(=O)N[C@@H](CCc2cc(F)c(C(F)(F)F)c(F)c2)C(=O)N2C[C@@H](C)C[C@H]2C(=O)NC2(CCC2)C(=O)N(C)[C@@H](C2CCCC2)C(=O)N1C [PP2083]	–	0.22	–	–	–	–	A (a compound having 10 or more and less than 20 is denoted as A)	B (a compound having 3 or more and less than 10 is denoted as B)
